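Results reflect a 48-hour exposure of cells in 96-well plates to compound at five concentrations. GI50 marks 50% less growth.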 Active and inactive are the calls of the source. Rule as the data show it: active = GI50 up to about 1.1 µM and inactive = higher. Where a SMILES comes first, the peptide text is derived from it. The star is where a group is joined. Boc = CC(C)(C)OC(=O)*; tBu = CC(C)(C)*
Tests used:
Experiment in all cases: NCI tumour cell line growth inhibition, 48 h
UACC-257 = tested on: UACC-257
SNB-19 = tested on: SNB-19
CCRF-CEM = tested on: CCRF-CEM
OVCAR-4 = tested on: OVCAR-4
MOLT-4 = tested on: MOLT-4
SR = tested on: SR
OVCAR-3 = tested on: OVCAR-3
TK-10 = tested on: TK-10
COLO 205 = tested on: COLO 205
BT-549 = tested on: BT-549
Hs-578T = tested on: Hs-578T
K562 = tested on: K562
RPMI-8226 = tested on: RPMI-8226
T47D = tested on: T47D
SF-295 = tested on: SF-295
PC-3 = tested on: PC-3
Malme-3M = tested on: Malme-3M
OVCAR-5 = tested on: OVCAR-5
CAKI-1 = tested on: CAKI-1

Measured: GI50

CC(OC(C)(C)C)C(NC(=O)C(N)CCCCNC(=O)OC(C)(C)C)C(=O)NC(Cc1ccccc1)C(=O)O (stereo not given) (H-Lys(Boc)-Thr(tBu)-Phe-OH; configuration not given here)
inactive: UACC-257 > 100 µM | SNB-19 > 100 µM | CCRF-CEM > 100 µM | OVCAR-4 > 100 µM | MOLT-4 > 100 µM | SR > 100 µM | OVCAR-3 > 100 µM | TK-10 > 100 µM | COLO 205 > 100 µM | BT-549 > 100 µM | Hs-578T > 100 µM | K562 > 100 µM | RPMI-8226 > 100 µM | T47D > 100 µM | SF-295 > 100 µM | PC-3 > 100 µM | Malme-3M > 100 µM | OVCAR-5 > 100 µM | CAKI-1 > 100 µM

CCOc1ccc(Nc2nc(N)nc(N)c2N=O)cc1
inactive: UACC-257 54 µM | SNB-19 61 µM | CCRF-CEM > 100 µM | OVCAR-4 69.3 µM | MOLT-4 17.6 µM | SR 71.1 µM | OVCAR-3 24.6 µM | TK-10 34.3 µM | COLO 205 > 100 µM | BT-549 45.6 µM | Hs-578T 50.9 µM | K562 53.5 µM | RPMI-8226 47.4 µM | T47D 19.2 µM | SF-295 > 100 µM | PC-3 28.4 µM | Malme-3M 49 µM | OVCAR-5 > 100 µM | CAKI-1 10.9 µM

CCCCOc1ccc(S(=O)(=O)N/C(=N\O)Nc2ccc(Cl)cc2)cc1
inactive: UACC-257 15.5 µM | SNB-19 15.2 µM | CCRF-CEM 19 µM | OVCAR-4 10.8 µM | MOLT-4 10.8 µM | SR 11 µM | OVCAR-3 14.9 µM | TK-10 15 µM | COLO 205 18.3 µM | BT-549 13.4 µM | Hs-578T 23.2 µM | K562 18.3 µM | RPMI-8226 21.1 µM | T47D 6.64 µM | SF-295 16.9 µM | PC-3 15.8 µM | Malme-3M 17.7 µM | OVCAR-5 18.6 µM | CAKI-1 10.8 µM

Cc1cccc(C)c1NC(=O)C(Cc1c[nH]c2ccccc12)NC(=O)OCc1ccccc1 (stereo not given)
inactive: UACC-257 14.5 µM | SNB-19 14.9 µM | CCRF-CEM 17.8 µM | OVCAR-4 8.04 µM | MOLT-4 15.4 µM | SR 22.5 µM | OVCAR-3 22.9 µM | TK-10 19.2 µM | COLO 205 13.2 µM | BT-549 24.8 µM | Hs-578T 33.1 µM | K562 30.2 µM | RPMI-8226 15.6 µM | T47D 20.6 µM | SF-295 17 µM | PC-3 12.3 µM | Malme-3M 20.1 µM | OVCAR-5 18.8 µM | CAKI-1 16.9 µM

COc1cc(O)cc(O)c1C(=O)CC(Cl)(Cl)Cl
inactive: UACC-257 > 100 µM | SNB-19 > 100 µM | CCRF-CEM > 100 µM | OVCAR-4 > 100 µM | MOLT-4 > 100 µM | SR > 100 µM | OVCAR-3 > 100 µM | TK-10 > 100 µM | COLO 205 > 100 µM | BT-549 > 100 µM | Hs-578T > 100 µM | K562 > 100 µM | RPMI-8226 40.1 µM | T47D > 100 µM | SF-295 > 100 µM | PC-3 > 100 µM | Malme-3M > 100 µM | OVCAR-5 > 100 µM | CAKI-1 > 100 µM

From ChEMBL document CHEMBL1201862, “PubChem BioAssay data set” (2004)
